Laboratory results from patent US20250179103A1, “6-OXODECAHYDROPYRROLO[1,2-A][1,5]DIAZOCINE AND 6-OXODECAHYDRO-4H-PYRROLO[2,1-D][1,5]THIAZOCINE DERIVATIVES AS STAT3 AND STAT6 MODULATORS FOR THE TREATMENT OF CANCER AND INFLAMMATORY CONDITIONS” (Recludix Pharma, Inc., priority 2022, published 2025).

Assays:
[1] = target: T1, Recombinant STAT6 protein (STAT6(W123-T658)) (Homo sapiens, UniProt P42226); assay: STAT6 Fluorescence Polarization (FP) Assay; format: binding; settings: STAT6(W123-T658) 250 nM, probe 5-FAM-ApYKPFQDLI-NH2 2 nM, 45-minute incubation
T1 construct: Recombinant STAT6 protein (STAT6(W123-T658))
T1 sequence (P42226 123-658): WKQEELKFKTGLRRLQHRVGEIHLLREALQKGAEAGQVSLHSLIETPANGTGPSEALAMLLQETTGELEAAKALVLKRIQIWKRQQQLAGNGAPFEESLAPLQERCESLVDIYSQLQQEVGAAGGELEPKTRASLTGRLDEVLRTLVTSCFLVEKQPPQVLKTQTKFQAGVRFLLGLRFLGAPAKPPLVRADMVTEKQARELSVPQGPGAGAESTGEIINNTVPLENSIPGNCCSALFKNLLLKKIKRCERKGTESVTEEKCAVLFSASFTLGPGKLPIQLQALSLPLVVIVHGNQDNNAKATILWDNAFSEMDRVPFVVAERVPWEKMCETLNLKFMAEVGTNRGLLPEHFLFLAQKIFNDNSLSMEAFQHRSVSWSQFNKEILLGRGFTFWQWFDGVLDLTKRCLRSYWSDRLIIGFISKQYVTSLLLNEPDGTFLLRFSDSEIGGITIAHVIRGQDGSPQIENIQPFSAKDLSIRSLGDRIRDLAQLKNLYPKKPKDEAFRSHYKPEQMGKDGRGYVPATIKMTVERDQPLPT
Method in brief: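 Displacement of a fluorescent phosphotyrosine peptide (5-FAM-ApYKPFQDLI-NH2, 2 nM) from STAT6(W123-T658) (250 nM), 1% DMSO, pH 7.4 HEPES buffer. After 45 min at room temperature, polarization (mP) was plotted versus log compound concentration and fitted by nonlinear regression to give IC50.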

[2] = target: T2, Recombinant STAT3 protein (STAT3(G127-I722)) (Homo sapiens, UniProt P40763); assay: STAT3 Fluorescence Polarization (FP) Assay; format: binding; settings: STAT3(G127-I722) 25 nM, probe 5-FAM-GpYLPQTV-NH2 2 nM, 45-minute incubation
T2 construct: Recombinant STAT3 protein (STAT3(G127-I722))
T2 sequence (P40763 127-722): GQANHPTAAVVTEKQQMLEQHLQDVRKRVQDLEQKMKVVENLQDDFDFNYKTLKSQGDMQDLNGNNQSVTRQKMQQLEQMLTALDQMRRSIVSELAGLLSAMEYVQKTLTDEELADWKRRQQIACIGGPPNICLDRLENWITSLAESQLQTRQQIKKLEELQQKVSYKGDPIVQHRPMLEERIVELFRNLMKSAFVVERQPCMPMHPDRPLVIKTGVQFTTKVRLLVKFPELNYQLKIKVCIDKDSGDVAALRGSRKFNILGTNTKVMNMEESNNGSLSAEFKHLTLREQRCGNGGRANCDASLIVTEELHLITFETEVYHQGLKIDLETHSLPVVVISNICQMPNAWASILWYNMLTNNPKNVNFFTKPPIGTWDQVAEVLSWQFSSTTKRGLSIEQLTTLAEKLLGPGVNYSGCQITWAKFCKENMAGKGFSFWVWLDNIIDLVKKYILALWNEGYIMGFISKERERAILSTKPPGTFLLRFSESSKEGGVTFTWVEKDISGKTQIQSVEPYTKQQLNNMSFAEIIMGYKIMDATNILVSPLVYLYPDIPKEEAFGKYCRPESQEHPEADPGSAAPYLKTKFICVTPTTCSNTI
Method in brief: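 Fluorescence polarization after a 45-min room-temperature incubation measured compound displacement of a 2 nM fluorescein-labelled phosphotyrosine peptide (5-FAM-GpYLPQTV-NH2) from 25 nM recombinant STAT3(G127-I722). Buffer was 10 mM HEPES pH 7.4 with 1% DMSO final. IC50s were fitted by nonlinear regression of mP against log concentration.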

| Compound | IC50 [1] [µM] | IC50 [2] [µM] |
| --- | --- | --- |
| N#C[C@@H]1CN(C(=O)[C@@H]2CC[C@@H]3CCN(CC(F)F)C[C@H](NC(=O)c4cc5cc(C(F)P(=O)(O)O)ccc5s4)C(=O)N32)C[C@H]1c1ccccc1 (stereo partly drawn) [Compound 395, ((2-(((5S,8S,10aR)-8-((3S,4R)-3-cyano-4-phenyl-pyrrolidine-1-carbonyl)-3-(2,2-difluoroethyl)-6-oxodecahydropyrrolo [1,2-a][1,5]diazocin-5-yl)carbamoyl)benzo[b]thiophen-5-yl)fluoromethyl) phosphonic acid] | ≤ 0.3 | 1 to 10 |
| Cc1ccc2onc(C(=O)N3CC[C@H]4CC[C@@H](C(=O)N5CCOCC5)N4C(=O)[C@@H](NC(=O)c4ccc5ccc(CP(=O)(O)O)nc5c4)C3)c2c1 [Compound 396, ((7-(((5S,8S,10aR)-3-(5-methylbenzo[d]isoxazole-3-carbonyl)-8-(morpholine-4-carbonyl)-6-oxodecahydropyrrolo [1,2-a][1,5]diazocin-5-yl)carbamoyl)quinolin-2-yl)methyl)phosphonic acid] | 3 to 30 | > 10 |
| Cc1ccc2onc(C(=O)N3CC[C@H]4CC[C@@H](C(=O)N5C[C@@H](C)O[C@@H](C)C5)N4C(=O)[C@@H](NC(=O)c4ccc5ccc(C(F)P(=O)(O)O)cc5c4)C3)c2c1 (stereo partly drawn) [Compound 397, ((7-(((5S,8S,10aR)-8-((2S,6R)-2,6-dimethylmorpholine-4-carbonyl)-3-(5-methylbenzo[d]isoxazole-3-carbonyl)-6-oxodecahydropyrrolo [1,2-a][1,5]diazocin-5-yl)carbamoyl)naphthalen-2-yl)fluoromethyl)phosphonic acid] | ≤ 0.3 | > 10 |
| N#Cc1cccc(C2CN(C(=O)[C@@H]3CC[C@@H]4CCN(Cc5ncccn5)C[C@H](NC(=O)c5cc6cc(C(F)P(=O)(O)O)ccc6s5)C(=O)N43)C2)n1 (stereo partly drawn) [Compound 398, ((2-(((5S,8S,10aR)-8-(3-(6-cyanopyridin-2-yl)azetidine-1-carbonyl)-6-oxo-3-(pyrimidin-2-ylmethyl)decahydropyrrolo[1,2-a][1,5]diazocin-5-yl)carbamoyl)benzo[b]thiophen-5-yl)fluoromethyl)phosphonic acid] | 3 to 30 | ≤ 0.1 |
| CC(=O)N1C[C@H](NC(=O)[C@@H]2CC[C@@H]3CCN(Cc4ncccn4)C[C@H](NC(=O)c4cc5cc(C(F)P(=O)(O)O)ccc5s4)C(=O)N32)[C@@H](F)C1 (stereo partly drawn) [Compound 400, ((2-(((5S,8S,10aR)-8-(((3S,4S)-1-acetyl-4-fluoropyrrolidin-3-yl)carbamoyl)-6-oxo-3-(pyrimidin-2-ylmethyl)decahydropyrrolo[1,2-a][1,5]diazocin-5-yl)carbamoyl)benzo[b]thiophen-5-yl)fluoromethyl)phosphonic acid] | 3 to 30 | 0.1 to 1 |
| O=C(N[C@H]1CN(C(=O)NCC23CCN(CC2)CC3)CC[C@H]2CC[C@@H](C(=O)N3CC(c4cccnc4)C3)N2C1=O)c1cc2cc(C(F)(F)P(=O)(O)O)ccc2s1 [Compound 401, (difluoro(2-(((5S,8S, 10aR)-6-oxo-8-(3-(pyridin-3-yl)azetidine-1-carbonyl)-3-((quinuclidin-4-ylmethyl)carbamoyl)decahydropyrrolo [1,2-a][1,5]diazocin-5-yl)carbamoyl)benzo[b]thiophen-5-yl)methyl) phosphonic acid] | 3 to 30 | ≤ 0.1 |
| ((2-(((5S,8S,10aR)-3-acetyl-8-((rel-trans)-3-cyano-3-methyl-4-phenylpyrrolidine-1-carbonyl)-6-oxodecahydropyrrolo[1,2-a][1,5]diazocin-5-yl)carbamoyl)benzo[b]thiophen-5-yl)difluoromethyl)phosphonic acid [Compound 41] | ≤ 0.3 | 1 to 10 |
| ((2-(((5S,8S,10aR)-8-((3S,4R or 3R,4S)-3-cyano-4-phenylpyrrolidine-1-carbonyl)-3-(2,2-difluoroethyl)-6-oxodecahydropyrrolo[1,2-a][1,5]diazocin-5-yl)carbamoyl)benzo[b]thiophen-5-yl)difluoromethyl)phosphonic acid [Compound 249] | ≤ 0.3 | 0.1 to 1 |

More lines, now with the values ahead:

| IC50 [1] [µM] | IC50 [2] [µM] | Compound |
| --- | --- | --- |
| > 30 | 0.1 to 1 | N#Cc1cccc(C2CN(C(=O)[C@@H]3CC[C@@H]4CCN(Cc5ncccn5)C[C@H](NC(=O)c5cc6cc(CP(=O)(O)O)ccc6s5)C(=O)N43)C2)n1 [Compound 399, ((2-(((5S,8S,10aR)-8-(3-(6-cyanopyridin-2-yl)azetidine-1-carbonyl)-6-oxo-3-(pyrimidin-2-ylmethyl)decahydro-pyrrolo[1,2-a][1,5]diazocin-5-yl)carbamoyl)benzo[b]thiophen-5-yl)methyl) phosphonic acid] |
| 3 to 30 | ≤ 0.1 | O=C(N[C@H]1CN(Cc2ccccc2-n2cncn2)CC[C@H]2CC[C@@H](C(=O)N3CC(c4cccnc4)C3)N2C1=O)c1cc2cc(C(F)(F)P(=O)(O)O)ccc2s1 [Compound 402, ((2-(((5S,8S,10aR)-3-(2-(1H-1,2,4-triazol-1-yl)benzyl)-6-oxo-8-(3-(pyridin-3-yl)azetidine-1-carbonyl)decahydro-pyrrolo[1,2-a][1,5]diazocin-5-yl)carbamoyl)benzo[b]thiophen-5-yl)difluoromethyl) phosphonic acid] |
| 3 to 30 | ≤ 0.1 | CN1CCN(c2ccc(C(=O)N3CC[C@H]4CC[C@@H](C(=O)N5CC(c6cccnc6)C5)N4C(=O)[C@@H](NC(=O)c4cc5cc(C(F)(F)P(=O)(O)O)ccc5s4)C3)c(Cl)c2)CC1 [Compound 403, ((2-(((5S,8S,10aR)-3-(2-chloro-4-(4-methylpiperazin-1-yl)benzoyl)-6-oxo-8-(3-(pyridin-3-yl)azetidine-1-carbonyl)decahydropyrrolo[1,2-a][1,5]diazocin-5-yl)carbamoyl)benzo[b]thiophen-5-yl)difluoromethyl) phophonic acid] |
| 3 to 30 | ≤ 0.1 | O=C(N[C@H]1CS(=O)(=O)CC[C@H]2CC[C@@H](C(=O)N3CC(c4cccnc4)C3)N2C1=O)c1cc2cc(C(F)(F)P(=O)(O)O)ccc2s1 [Compound 404, ((2-(((5R,8S,10aR)-3,3-dioxido-6-oxo-8-(3-(pyridin-3-yl)azetidine-1-carbonyl)octahydro-4H-pyrrolo[2,1-d][1,5]thiazocin-5-yl)carbamoyl)benzo[b]thiophen-5-yl)difluoromethyl) phosphonic acid] |
| 3 to 30 | ≤ 0.1 | O=C(N[C@H]1CSCC[C@H]2CC[C@@H](C(=O)N3CC(c4cccnc4)C3)N2C1=O)c1cc2cc(C(F)(F)P(=O)(O)O)ccc2s1 [Compound 405, (difluoro(2-(((5R,8S, 10aR)-6-oxo-8-(3-(pyridin-3-yl)azetidine-1-carbonyl)octahydro-4H-pyrrolo[2,1-d][1,5]thiazocin-5-yl)carbamoyl)benzo[b]thiophen-5-yl)methyl) phosphonic acid] |
